# Target: T1, Recombinant (1-346) HPK1 (h) (Homo sapiens, UniProt Q92918)
# T1 construct: Recombinant (1-346) HPK1 (h) is incubated with 8 mM MOPS pH 7.0
# T1 sequence (Q92918 1-346): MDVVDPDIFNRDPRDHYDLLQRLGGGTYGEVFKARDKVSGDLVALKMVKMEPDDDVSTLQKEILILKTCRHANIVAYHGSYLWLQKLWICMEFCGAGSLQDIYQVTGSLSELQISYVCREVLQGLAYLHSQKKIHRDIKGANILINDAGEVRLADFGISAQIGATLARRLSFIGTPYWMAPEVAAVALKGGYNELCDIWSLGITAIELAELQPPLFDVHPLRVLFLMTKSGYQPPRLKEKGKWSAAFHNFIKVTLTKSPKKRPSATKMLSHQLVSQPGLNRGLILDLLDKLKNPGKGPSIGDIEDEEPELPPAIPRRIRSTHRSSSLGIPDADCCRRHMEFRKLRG
# Experiment: HPK1 Human STE Kinase Enzymatic Radiometric Assay
# Format: biochemical
# Settings: read-out: HPK1 IC50 nM Range*
# Protocol: A stock solution of 10 mM of test compound is prepared in DMSO. The compound plate was prepared by 3-fold and 9-point serial dilutions. […] The reaction is initiated by The addition of the Mg/ATP mix. After incubation for 40 minutes at RT, the reaction is stopped by the addition of phosphoric acid to a concentration of 0.5%.
row,IC50 [nM],Structure (SMILES)
1,11 to 100,"C[C@@H]1CN(c2ccc(-c3cc(-c4cc(F)c5c(c4)CCNC5=O)c(N)nc3F)cc2CN(C)C)C[C@H](C)O1 [I-596, 6-(2-amino-5-(3-((dimethylamino)methyl)-4-((2R,6S)-2,6-dimethylmorpholino)phenyl)-6-fluoropyridin-3-yl)-8-fluoro-3,4-dihydroisoquinolin-1(2H)-one]"
2,11 to 100,"C[C@@H]1CN(c2ccc(-c3cc(-c4cc5c(cc4F)C(=O)NCC5)c(N)nc3F)cc2CN(C)C)C[C@H](C)O1 [I-597, 6-(2-amino-5-(3-((dimethylamino)methyl)-4-((2R,6S)-2,6-dimethylmorpholino)phenyl)-6-fluoropyridin-3-yl)-7-fluoro-3,4-dihydroisoquinolin-1(2H)-one]"
3,11 to 100,"C[C@H]1CN(c2ccc(-c3cc(-c4ccc5c(c4)CCNC5=O)c(N)nc3F)cc2CN2CCC2)CCO1 [I-598, (S)-6-(2-amino-5-(3-(azetidin-1-ylmethyl)-4-(2-methylmorpholino)phenyl)-6-fluoropyridin-3-yl)-3,4-dihydroisoquinolin-1(2H)-one]"
4,11 to 100,"C[C@H]1CN(c2ccc(-c3cc(-c4cc5c(cc4F)C(=O)NCC5)c(N)nc3F)cc2CN2CCC2)CCO1 [I-599, (S)-6-(2-amino-5-(3-(azetidin-1-ylmethyl)-4-(2-methylmorpholino)phenyl)-6-fluoropyridin-3-yl)-7-fluoro-3,4-dihydroisoquinolin-1(2H)-one]"
5,0.1 to 10,"CN(C)Cc1nc(-c2cc(-c3ccc4c(c3)CCNC4=O)c(N)nc2F)ccc1C1CCOCC1 [I-600, 6-(6′-amino-6-((dimethylamino)methyl)-2′-fluoro-5-(tetrahydro-2H-pyran-4-yl)-[2,3′-bipyridin]-5′-yl)-3,4-dihydroisoquinolin-1(2H)-one]"
6,0.1 to 10,"CN(C)Cc1nc(-c2cc(-c3cc4c(cc3F)C(=O)NCC4)c(N)nc2F)ccc1C1CCOCC1 [I-601, 6-(6′-amino-6-((dimethylamino)methyl)-2′-fluoro-5-(tetrahydro-2H-pyran-4-yl)-[2,3′-bipyridin]-5′-yl)-7-fluoro-3,4-dihydroisoquinolin-1(2H)-one]"
7,0.1 to 10,"Nc1nc(F)c(-c2ccc(C3CCOCC3)c(CN3CCC3)n2)cc1-c1cc2c(cc1F)C(=O)NCC2 [I-602, 6-(6′-amino-6-(azetidin-1-ylmethyl)-2′-fluoro-5-(tetrahydro-2H-pyran-4-yl)-[2,3′-bipyridin]-5′-yl)-7-fluoro-3,4-dihydroisoquinolin-1(2H)-one]"
8,0.1 to 10,"CCN(C)Cc1nc(-c2cc(-c3ccc4c(c3)CCNC4=O)c(N)nc2F)ccc1C1CCOCC1 [I-603, 6-(6′-amino-6-((ethyl(methyl)amino)methyl)-2′-fluoro-5-(tetrahydro-2H-pyran-4-yl)-[2,3′-bipyridin]-5′-yl)-3,4-dihydroisoquinolin-1(2H)-one]"
9,0.1 to 10,"CCN(C)Cc1nc(-c2cc(-c3cc4c(cc3F)C(=O)NCC4)c(N)nc2F)ccc1C1CCOCC1 [I-604, 6-(6′-amino-6-((ethyl(methyl)amino)methyl)-2′-fluoro-5-(tetrahydro-2H-pyran-4-yl)-[2,3′-bipyridin]-5′-yl)-7-fluoro-3,4-dihydroisoquinolin-1(2H)-one]"
10,0.1 to 10,"Nc1nc(F)c(-c2ccc(C3CCOCC3)c(CN3CCC3)n2)cc1-c1ccc2c(c1)CCNC2=O [I-605, 6-(6′-amino-6-(azetidin-1-ylmethyl)-2′-fluoro-5-(tetrahydro-2H-pyran-4-yl)-[2,3′-bipyridin]-5′-yl)-3,4-dihydroisoquinolin-1(2H)-one]"
11,11 to 100,"CN(C)Cc1c(N2CCOCC2)ccc(-c2cc(-c3ccc4c(c3)CCNC4=O)c(N)nc2F)c1F [I-606, 6-(2-amino-5-(3-((dimethylamino)methyl)-2-fluoro-4-morpholinophenyl)-6-fluropyridin-3-yl)-3,4-dihydroisoquinolin-1(2H)-one]"
12,11 to 100,"CN(C)Cc1c(N2CCOCC2)ccc(-c2cc(-c3cc4c(cc3F)C(=O)NCC4)c(N)nc2F)c1F [I-607, 6-(2-amino-5-(3-((dimethylamino)methyl)-2-fluoro-4-morpholinophenyl)-6-fluoropyridin-3-yl)-7-fluoro-3,4-dihydroisoquinolin-1(2H)-one]"
13,11 to 100,"Nc1nc(F)c(-c2ccc(N3CCOCC3)c(CN3CCC3)c2F)cc1-c1cc2c(cc1F)C(=O)NCC2 [I-608, 6-(2-amino-5-(3-(azetidin-1-ylmethyl)-2-fluoro-morpholinophenyl)-6-fluoropyridin-3-yl)-7-fluoro-3,4-dihydroisoquinolin-1(2H)-one]"
14,11 to 100,"CCN(C)Cc1c(N2CCOCC2)ccc(-c2cc(-c3ccc4c(c3)CCNC4=O)c(N)nc2F)c1F [I-610, 6-(2-amino-5-(3-((ethyl(methyl)amino)methyl)-2-fluoro-4-morpholinophenyl)-6-fluoropyridin-3-yl)-3,4-dihydroisoquinolin-1(2H)-one]"
15,11 to 100,"CCN(C)Cc1c(N2CCOCC2)ccc(-c2cc(-c3cc4c(cc3F)C(=O)NCC4)c(N)nc2F)c1F [I-611, 6-(2-amino-5-(3-((ethyl(methyl)amino)methyl)-2-fluoro-4-morpholinophenyl)-6-fluoropyridin-3-yl)-7-fluoro-3,4-dihydroisoquinolin-1(2H)-one]"
16,11 to 100,"CN(C)Cc1cc(-c2cc(-c3ccc4c(c3)CCNC4=O)c(N)nc2F)cnc1N1CCOCC1 [I-612, 6-(6-amino-5′-((dimethylamino)methyl)-2-fluoro-6′-morpholino-[3,3′-bipyridin]-5-yl)-3,4-dihydroisoquinolin-1(2H)-one]"
17,11 to 100,"CN(C)Cc1cc(-c2cc(-c3ccc4c(c3)CCNC4=O)c(N)nc2F)ncc1N1CCOCC1 [I-613, 6-(6′-amino-4-((dimethylamino)methyl)-2′-fluoro-5-morpholino-[2,3′-bipyridin]-5′-yl)-3,4-dihydroisoquinolin-1(2H)-one]"
18,11 to 100,"CC(C)N(C)Cc1cc(-c2cc(-c3ccc4c(c3)CCNC4=O)c(N)nc2F)ccc1N1CCOCC1 [I-614, 6-(2-amino-6-fluoro-5-(3-((isopropyl(methyl)amino)methyl)-4-morpholinoophenyl)pyridin-3-yl)-3,4-dihydroisoquinolin-1(2H)-one]"
19,0.1 to 10,"CCN(CC)Cc1cc(-c2cc(-c3ccc4c(c3)CCNC4=O)c(N)nc2F)ccc1N1CCOCC1 [I-615, 6-(2-amino-5-(3-((diethylamino)methyl)-4-morpholinophenyl)-6-fluoropyridin-3-yl)-3,4-dihydroisoquinolin-1(2H)-one]"
20,0.1 to 10,"CN(Cc1cc(-c2cc(-c3ccc4c(c3)CCNC4=O)c(N)nc2F)ccc1N1CCOCC1)CC1CCCO1 (stereo not shown) [I-616, 6-(2-amino-6-fluoro-5-(3-((methyl((tetrahydrofuran-2-yl)methyl)amino)methyl)-4-morpholinophenyl)pyridin-3-yl)-3,4-dihydroisoquinolin-1(2H)-one]"
21,11 to 100,"CN(C)Cc1cc(-c2cc(-c3ccc4c(c3)CCNC4=O)c(N)nc2F)ccc1F [I-617, 6-(2-amino-5-(3-((dimethylamino)methyl)-4-fluorophenyl)-6-fluoropyridin-3-yl)-3,4-dihydroisoquinolin-1(2H)-one]"
22,11 to 100,"CN(C)Cc1cc(-c2cc(-c3cc4c(cc3F)C(=O)NCC4)c(N)nc2F)ccc1F [I-618, 6-(2-amino-5-(3-((dimethylamino)methyl)-4-fluorophenyl)-6-fluoropyridin-3-yl)-7-fluoro-3,4-dihydroisoquinolin-1(2H)-one]"
23,11 to 100,"CN(Cc1cc(-c2cc(-c3cc4c(cc3F)C(=O)NCC4)c(N)nc2F)ccc1N1CCOCC1)CC1CCCO1 (stereo not shown) [I-619, 6-(2-amino-6-fluoro-5-(3-((methyl((tetrahydrofuran-2-yl)methyl)amino)methyl)-4-morpholinophenyl)pyridin-3-yl)-7-fluoro-3,4-dihydroisoquinolin-1(2H)-one]"
24,0.1 to 10,"CN(C)Cc1cc(-c2cc(-c3ccc4c(c3)CCNC4=O)c(N)nc2F)ccc1C1CCOC1 (stereo not shown) [I-620, 6-(2-amino-5-(3-((dimethylamino)methyl)-4-(tetrahydrofuran-3-yl)phenyl)-6-fluoropyridin-3-yl)-3,4-dihydroisoquinolin-1(2H)-one]"
25,11 to 100,"CN(C)Cc1cc(-c2cc(-c3cc4c(cc3F)C(=O)NCC4)c(N)nc2F)ccc1C1CCOC1 (stereo not shown) [I-621, 6-(2-amino-5-(3-((dimethylamino)methyl)-4-(tetrahydrofuran-3-yl)phenyl)-6-fluoropyridin-3-yl)-7-fluoro-3,4-dihydroisoquinolin-1(2H)-one]"
26,11 to 100,"CN(C)Cc1cc(-c2cc(-c3ccc4c(c3)CCNC4=O)c(N)nc2F)c(F)cc1N1CCOCC1 [I-622, 6-(2-amino-5-(5-((dimethylamino)methyl)-2-fluoro-4-morpholinophenyl)-6-fluoropyridin-3-yl)-3,4-dihydroisoquinolin-1(2H)-one]"
27,11 to 100,"CN(C)Cc1cc(-c2cc(-c3ccc4c(c3)CCNC4=O)c(N)nc2F)c(F)c(F)c1N1CCOCC1 [I-623, 6-(2-amino-5-(5-((dimethylamino)methyl)-2,3-difluoro-4-morpholinophenyl)-6-fluoropyridin-3-yl)-3,4-dihydroisoquinolin-1(2H)-one]"
28,11 to 100,"CC(c1cc(-c2cc(-c3ccc4c(c3)CCNC4=O)c(N)nc2F)ccc1O)N(C)C (stereo not shown) [I-624, 6-(2-amino-5-(3-(1-(dimethylamino)ethyl)-4-hydroxyphenyl)-6-fluoropyridin-3-yl)-3,4-dihydroisoquinolin-1(2H)-one]"

# Reference: patent publication US20240343704A1, “HALO-SUBSTITUTED AMINO PYRIDINE COMPOUNDS AS INHIBITORS OF THE HAEMATOPOIETIC PROGENITOR KINASE 1 (HPK1)” (priority 2021, published 2024)
